Data as given in ChEMBL document CHEMBL5715954, “Silencing c-Myc translation as a therapeutic strategy through targeting PI3Kδ and CK1ε in hematological malignancies” (Blood, 2017).

What was measured:
Design in all cases: scale not given: the % may be the effect or the level left
[1] = target: Casein kinase I isoform alpha (Homo sapiens) (UniProt P48729); test: Inhibition of human CK1a1 assessed as enzyme activity at 1 uM using KRRRAL[pS]VASLPGL as substrate preincubated for 20 mins followed by [gamma-33P]-ATP addition and measured after 120 mins by radiometric Hot-SpotSM Kinase assay relative to control
Casein kinase I isoform alpha (Homo sapiens), sequence (P48729 2-337 limits assumed): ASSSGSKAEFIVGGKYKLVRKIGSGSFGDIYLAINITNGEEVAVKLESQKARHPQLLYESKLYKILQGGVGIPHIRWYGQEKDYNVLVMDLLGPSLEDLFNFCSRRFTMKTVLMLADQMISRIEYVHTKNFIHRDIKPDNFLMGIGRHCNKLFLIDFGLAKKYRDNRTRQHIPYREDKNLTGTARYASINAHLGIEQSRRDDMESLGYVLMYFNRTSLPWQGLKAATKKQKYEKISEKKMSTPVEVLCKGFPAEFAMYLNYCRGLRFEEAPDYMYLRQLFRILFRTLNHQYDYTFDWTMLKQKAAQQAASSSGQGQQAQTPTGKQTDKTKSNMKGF

[2] = target: LIM domain kinase 2 (Homo sapiens) (UniProt P53671); test: Inhibition of human LIMK2 assessed as enzyme activity at 1 uM using cofilin 2 as substrate preincubated for 20 mins followed by [gamma-33P]-ATP addition and measured after 120 mins by radiometric Hot-SpotSM Kinase assay relative to control
LIM domain kinase 2 (Homo sapiens), sequence (P53671 whole entry, looked up, the tested form may be a part): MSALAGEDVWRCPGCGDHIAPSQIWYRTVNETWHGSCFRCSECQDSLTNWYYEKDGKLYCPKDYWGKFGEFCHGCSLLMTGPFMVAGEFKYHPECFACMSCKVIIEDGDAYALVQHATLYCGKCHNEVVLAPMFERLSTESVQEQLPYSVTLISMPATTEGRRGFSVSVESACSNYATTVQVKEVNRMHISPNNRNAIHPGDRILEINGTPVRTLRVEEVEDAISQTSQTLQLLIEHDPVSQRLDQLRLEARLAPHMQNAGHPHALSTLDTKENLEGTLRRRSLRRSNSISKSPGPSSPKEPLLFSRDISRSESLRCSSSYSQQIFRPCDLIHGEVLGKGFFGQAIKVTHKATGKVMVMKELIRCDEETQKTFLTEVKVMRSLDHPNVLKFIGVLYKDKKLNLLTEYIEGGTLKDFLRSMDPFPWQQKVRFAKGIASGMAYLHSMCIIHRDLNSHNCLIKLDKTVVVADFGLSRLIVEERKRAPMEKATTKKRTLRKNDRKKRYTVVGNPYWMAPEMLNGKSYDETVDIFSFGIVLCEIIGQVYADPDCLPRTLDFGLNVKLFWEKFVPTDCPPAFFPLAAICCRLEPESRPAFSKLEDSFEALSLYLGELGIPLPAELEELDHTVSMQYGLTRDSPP

[3] = target: T1, Dual specificity mitogen-activated protein kinase kinase 7 (Homo sapiens) (UniProt O14733); test: Inhibition of human MKK7 assessed as enzyme activity at 1 uM using JNK (K55M) as substrate preincubated for 20 mins followed by [gamma-33P]-ATP addition and measured after 120 mins by radiometric Hot-SpotSM Kinase assay relative to control
T1 sequence (whole entry): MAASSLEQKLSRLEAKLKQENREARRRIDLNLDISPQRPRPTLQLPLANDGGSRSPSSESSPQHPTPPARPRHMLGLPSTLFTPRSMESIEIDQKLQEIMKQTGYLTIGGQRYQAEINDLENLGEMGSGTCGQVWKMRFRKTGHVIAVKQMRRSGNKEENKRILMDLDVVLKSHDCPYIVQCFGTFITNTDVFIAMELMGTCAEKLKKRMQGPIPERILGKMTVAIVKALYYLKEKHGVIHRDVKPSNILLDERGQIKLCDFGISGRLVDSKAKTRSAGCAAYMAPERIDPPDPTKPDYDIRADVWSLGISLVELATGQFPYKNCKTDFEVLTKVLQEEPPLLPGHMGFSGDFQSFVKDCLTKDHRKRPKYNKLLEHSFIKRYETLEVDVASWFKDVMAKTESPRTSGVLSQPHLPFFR

[4] = target: T2, Serine/threonine-protein kinase D3 (Homo sapiens) (UniProt O94806); test: Inhibition of human PKCnu assessed as enzyme activity at 1 uM using KKLNRTLSVA as substrate preincubated for 20 mins followed by [gamma-33P]-ATP addition and measured after 120 mins by radiometric Hot-SpotSM Kinase assay relative to control
T2 sequence (whole entry): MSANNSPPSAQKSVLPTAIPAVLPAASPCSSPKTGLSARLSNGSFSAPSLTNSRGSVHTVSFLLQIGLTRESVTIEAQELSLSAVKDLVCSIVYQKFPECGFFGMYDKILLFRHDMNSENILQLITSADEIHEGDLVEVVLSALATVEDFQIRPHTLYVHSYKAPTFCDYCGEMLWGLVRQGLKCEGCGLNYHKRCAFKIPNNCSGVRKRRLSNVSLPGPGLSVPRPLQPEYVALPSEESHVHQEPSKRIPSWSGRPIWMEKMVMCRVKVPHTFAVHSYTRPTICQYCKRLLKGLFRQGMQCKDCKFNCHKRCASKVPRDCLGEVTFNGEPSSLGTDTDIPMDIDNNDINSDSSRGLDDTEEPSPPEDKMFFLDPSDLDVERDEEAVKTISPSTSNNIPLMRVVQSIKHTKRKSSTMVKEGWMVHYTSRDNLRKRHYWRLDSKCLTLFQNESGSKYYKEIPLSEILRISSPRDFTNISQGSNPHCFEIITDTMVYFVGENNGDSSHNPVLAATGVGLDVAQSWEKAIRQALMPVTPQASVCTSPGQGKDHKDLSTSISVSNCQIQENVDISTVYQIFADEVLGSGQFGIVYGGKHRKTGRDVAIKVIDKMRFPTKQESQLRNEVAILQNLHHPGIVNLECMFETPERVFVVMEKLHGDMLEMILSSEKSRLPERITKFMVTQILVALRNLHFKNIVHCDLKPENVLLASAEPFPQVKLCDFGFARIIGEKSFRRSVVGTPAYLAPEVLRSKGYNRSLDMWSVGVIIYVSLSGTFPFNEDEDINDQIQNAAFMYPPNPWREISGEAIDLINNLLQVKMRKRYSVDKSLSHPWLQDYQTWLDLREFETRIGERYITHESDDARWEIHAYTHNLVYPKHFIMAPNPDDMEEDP

[5] = target: T3, cGMP-dependent protein kinase 1 (Homo sapiens) (UniProt Q13976); test: Inhibition of human PKG1a assessed as enzyme activity at 1 uM using LRRASLG as substrate preincubated for 20 mins followed by [gamma-33P]-ATP addition and measured after 120 mins by radiometric Hot-SpotSM Kinase assay relative to control
T3 sequence (whole entry): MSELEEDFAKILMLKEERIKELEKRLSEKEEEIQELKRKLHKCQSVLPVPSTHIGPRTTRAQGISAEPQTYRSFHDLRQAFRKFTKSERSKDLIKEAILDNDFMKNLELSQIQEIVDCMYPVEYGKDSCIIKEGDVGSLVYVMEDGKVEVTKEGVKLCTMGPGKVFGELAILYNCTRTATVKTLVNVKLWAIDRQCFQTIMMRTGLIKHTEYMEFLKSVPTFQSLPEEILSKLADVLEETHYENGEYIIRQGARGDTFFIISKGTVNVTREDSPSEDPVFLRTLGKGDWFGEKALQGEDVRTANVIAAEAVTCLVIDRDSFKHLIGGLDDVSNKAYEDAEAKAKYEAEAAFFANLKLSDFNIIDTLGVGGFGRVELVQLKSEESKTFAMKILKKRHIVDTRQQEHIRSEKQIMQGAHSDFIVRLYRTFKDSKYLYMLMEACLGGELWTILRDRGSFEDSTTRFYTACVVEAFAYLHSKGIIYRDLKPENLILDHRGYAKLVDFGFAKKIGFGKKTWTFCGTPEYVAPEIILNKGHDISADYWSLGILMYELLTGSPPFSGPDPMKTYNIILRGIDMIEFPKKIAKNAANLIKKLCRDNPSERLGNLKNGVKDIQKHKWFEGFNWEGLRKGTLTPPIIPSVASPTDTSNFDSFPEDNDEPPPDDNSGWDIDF

SMILES	Activity [1]	Activity [2]	Activity [3]	Activity [4]	Activity [5]
CC[C@H](Nc1ncnc2[nH]cnc12)c1nc2cccc(F)c2c(=O)n1-c1ccccc1	107%	96%	95.1%	85.5%	105%
C[C@H](Nc1ncnc2nc[nH]c12)c1cc2cccc(Cl)c2c(=O)n1-c1ccccc1	111%	104%	96%	94.8%	109%
CC(C)Oc1ccc(-c2nn([C@@H](C)c3oc4ccc(F)cc4c(=O)c3-c3cccc(F)c3)c3ncnc(N)c23)cc1F [UMBRALISIB]	111%	98.6%	96.9%	98.4%	105%
